This is an account of results in BindingDB's records for doi:10.7270/Q2NZ862K (Nmmlsc, 2007).

Bounds are passed on as bounds.

In the test the target is T1, fMet-Leu-Phe receptor (Homo sapiens, UniProt P21462).
T1 sequence (P21462 whole entry): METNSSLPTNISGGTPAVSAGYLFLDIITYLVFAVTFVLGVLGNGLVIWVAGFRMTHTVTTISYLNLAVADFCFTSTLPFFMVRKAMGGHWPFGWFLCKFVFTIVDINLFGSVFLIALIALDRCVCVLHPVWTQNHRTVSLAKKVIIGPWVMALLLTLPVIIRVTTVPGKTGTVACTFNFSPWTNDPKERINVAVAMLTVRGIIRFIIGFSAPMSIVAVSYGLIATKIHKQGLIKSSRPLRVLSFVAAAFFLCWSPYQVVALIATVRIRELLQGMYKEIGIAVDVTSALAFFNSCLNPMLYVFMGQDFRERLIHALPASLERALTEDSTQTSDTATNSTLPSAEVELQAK
The experiment in a line: formyl peptide receptor binders – dose response (AID 519).

Compound `COc1cccc(C2C(C(=O)c3ccc(OC)c(OC)c3)C(=O)C(=O)N2c2cc(C)on2)c1` (configuration not stated) [(4E)-4-[(3,4-dimethoxyphenyl)-hydroxy-methylene]-5-(3-methoxyphenyl)-1-(5-methylisoxazol-3-yl)pyrrolidine-2,3-quinone] gave a Ki of more than 43.7 µM.
In the case of `COc1cc(C2C(C(=O)c3ccco3)C(=O)C(=O)N2CCc2ccccc2)ccc1O` (configuration not stated) [3-(furan-2-carbonyl)-4-hydroxy-2-(4-hydroxy-3-methoxyphenyl)-1-(2-phenylethyl)-2H-pyrrol-5-one] it was more than 43.7 µM; in that of `CC1Cc2cc(C(=O)C3C(=O)C(=O)N(CCN4CCOCC4)C3c3ccccc3F)ccc2O1` (configuration not stated) [(4E)-5-(2-fluorophenyl)-4-[(2-methyl-2,3-dihydro-1-benzofuran-5-yl)-oxidanyl-methylidene]-1-(2-morpholin-4-ylethyl)pyrrolidine-2,3-dione], more than 43.7 µM; in that of `C=CCN1C(=O)C2(c3ccccc31)C(C(=O)c1ccc3c(c1)OCCO3)C(=O)C(=O)N2CCCOC` (configuration not stated) [(4'E)-1-allyl-4'-[2,3-dihydro-1,4-benzodioxin-6-yl(hydroxy)methylene]-1'-(3-methoxypropyl)spiro[indoline-3,5'-pyrrolidine]-2,2',3'-trione], more than 43.7 µM.
`COCCCN1C(=O)C(=O)C(C(=O)c2ccccc2)C1c1ccc2c(c1)OCO2` (configuration not stated) [(4E)-5-(1,3-benzodioxol-5-yl)-1-(3-methoxypropyl)-4-[oxidanyl(phenyl)methylidene]pyrrolidine-2,3-dione] yielded a Ki of 19.4 µM.
`O=c1c(C23CC4CC(CC(C4)C2)C3)c(O)n(-c2ccccc2)n1-c1ccccc1` [MLS000526352] came in with a Ki of 7.5 µM.
For `O=C1C(=O)N(CCCN2CCOCC2)C(c2ccccn2)C1C(=O)c1cc2ccccc2o1` (configuration not stated) [3-(1-benzofuran-2-carbonyl)-4-hydroxy-1-(3-morpholin-4-ylpropyl)-2-pyridin-2-yl-2H-pyrrol-5-one] the value was 39.7 µM.
The compound `COCCCN1C(=O)C(=O)C(C(=O)c2ccc3c(c2)CC(C)O3)C1c1cccnc1` (configuration not stated) [(4E)-1-(3-methoxypropyl)-4-[(2-methyl-2,3-dihydro-1-benzofuran-5-yl)-oxidanyl-methylidene]-5-pyridin-3-yl-pyrrolidine-2,3-dione] displayed a Ki of more than 43.7 µM.
On to `COc1ccc(C2C(C(=O)c3ccco3)C(=O)C(=O)N2Cc2cccnc2)cc1OC` (configuration not stated) [2-(3,4-dimethoxyphenyl)-3-(furan-2-carbonyl)-4-hydroxy-1-(pyridin-3-ylmethyl)-2H-pyrrol-5-one], for which the Ki was more than 43.7 µM.
For `O=C1C(=O)N(Cc2ccccc2)C(c2cccnc2)C1C(=O)c1ccco1` (configuration not stated) [1-Benzyl-4-(furan-2-carbonyl)-3-hydroxy-5-pyridin-3-yl-1,5-dihydro-pyrrol-2-one], the Ki stood at 20 µM.
In the case of `O=C1C(=O)N(CC2CCCO2)C(c2cccnc2)C1C(=O)c1ccco1` (configuration not stated) [3-(furan-2-carbonyl)-4-hydroxy-1-(oxolan-2-ylmethyl)-2-pyridin-3-yl-2H-pyrrol-5-one] it was 35.9 µM; in that of `O=C1C(=O)N(Cc2ccccc2)C(c2ccncc2)C1C(=O)c1ccco1` (configuration not stated) [1-Benzyl-4-(furan-2-carbonyl)-3-hydroxy-5-pyridin-4-yl-1,5-dihydro-pyrrol-2-one], 8.9 µM.
For `Cc1ccc(C2C(C(=O)c3sc(C)nc3C)C(=O)C(=O)N2CCN2CCOCC2)o1` (configuration not stated) [3-(2,4-dimethyl-1,3-thiazole-5-carbonyl)-4-hydroxy-2-(5-methylfuran-2-yl)-1-(2-morpholin-4-ylethyl)-2H-pyrrol-5-one] the value was more than 43.7 µM; for `CCOc1ccc(C2C(C(=O)c3ccco3)C(=O)C(=O)N2CCCn2ccnc2)cc1` (configuration not stated) [2-(4-ethoxyphenyl)-3-(furan-2-carbonyl)-4-hydroxy-1-(3-imidazol-1-ylpropyl)-2H-pyrrol-5-one], 6.4 µM; for `C=CCOc1cccc(C2C(C(=O)c3ccco3)C(=O)C(=O)N2CCN2CCOCC2)c1` (configuration not stated) [3-(furan-2-carbonyl)-4-hydroxy-1-(2-morpholin-4-ylethyl)-2-(3-prop-2-enoxyphenyl)-2H-pyrrol-5-one], more than 43.7 µM.
In the case of `COc1cc(C2C(C(=O)c3ccc4c(c3)CC(C)O4)C(=O)C(=O)N2CCCn2ccnc2)ccc1O` (configuration not stated) [(4E)-1-(3-imidazol-1-ylpropyl)-5-(3-methoxy-4-oxidanyl-phenyl)-4-[(2-methyl-2,3-dihydro-1-benzofuran-5-yl)-oxidanyl-methylidene]pyrrolidine-2,3-dione] it was 37.6 µM; in that of `COC(=O)c1[nH]c(C)c(C(=O)C2C(=O)C(=O)N(CCCN3CCOCC3)C2c2ccccn2)c1C` (configuration not stated) [methyl 4-{[4-hydroxy-1-[3-(4-morpholinyl)propyl]-5-oxo-2-(2-pyridinyl)-2,5-dihydro-1H-pyrrol-3-yl]carbonyl}-3,5-dimethyl-1H-pyrrole-2-carboxylate], 6.3 µM; in that of `CC1=NC(C)=C(C#N)C(c2ccc3ncccc3c2)C1C#N` (configuration not stated), more than 43.7 µM.
The compound `COc1ccc(C2C(C(=O)c3ccccc3)C(=O)C(=O)N2CC(C)O)c(OC)c1` (configuration not stated) [(4Z)-5-(2,4-dimethoxyphenyl)-4-[hydroxy(phenyl)methylene]-1-(2-hydroxypropyl)pyrrolidine-2,3-quinone] yielded a Ki of 25.3 µM.
In the case of `CCCOc1ccc(C2C(C(=O)c3ccc(C)o3)C(=O)C(=O)N2Cc2cccnc2)cc1` (configuration not stated) [3-(5-methylfuran-2-yl)carbonyl-4-oxidanyl-2-(4-propoxyphenyl)-1-(pyridin-3-ylmethyl)-2H-pyrrol-5-one] it was 27.9 µM; in that of `Cc1ccc(C2C(C(=O)c3ccc(Cl)cc3)C(=O)C(=O)N2CC2CCCO2)o1` (configuration not stated) [(4Z)-4-[(4-chlorophenyl)-hydroxy-methylene]-5-(5-methyl-2-furyl)-1-(tetrahydrofurfuryl)pyrrolidine-2,3-quinone], 7.6 µM; in that of `COc1ccc(OC)c(C2C(C(=O)c3cccs3)C(=O)C(=O)N2c2cc(C)on2)c1` (configuration not stated) [2-(2,5-dimethoxyphenyl)-1-(5-methyl-1,2-oxazol-3-yl)-4-oxidanyl-3-thiophen-2-ylcarbonyl-2H-pyrrol-5-one], more than 43.7 µM.
`CCOc1ccc(C2C(C(=O)c3cccs3)C(=O)C(=O)N2CCCn2ccnc2)cc1` (configuration not stated) [2-(4-ethoxyphenyl)-1-(3-imidazol-1-ylpropyl)-4-oxidanyl-3-thiophen-2-ylcarbonyl-2H-pyrrol-5-one] displayed a Ki of 37.4 µM.
The compound `CCCOc1ccc(C2C(C(=O)c3ccco3)C(=O)C(=O)N2CCCn2ccnc2)cc1` (configuration not stated) [3-(furan-2-carbonyl)-4-hydroxy-1-(3-imidazol-1-ylpropyl)-2-(4-propoxyphenyl)-2H-pyrrol-5-one] returned a Ki of more than 43.7 µM.
In the case of `COC(=O)c1ccc(C2C(C(=O)c3ccc(OC)cc3)C(=O)C(=O)N2Cc2ccco2)cc1` (configuration not stated) [4-[(3Z)-1-(2-furanylmethyl)-3-[hydroxy-(4-methoxyphenyl)methylidene]-4,5-dioxo-2-pyrrolidinyl]benzoic acid methyl ester] it was 28.1 µM; in that of `O=C1C(=O)N(CCc2ccccc2)C(c2cccnc2)C1C(=O)c1ccco1` (configuration not stated) [3-(furan-2-carbonyl)-4-hydroxy-1-(2-phenylethyl)-2-pyridin-3-yl-2H-pyrrol-5-one], more than 43.7 µM; in that of `CCOc1cccc(C(=O)C2C(=O)C(=O)N(CCOC)C2c2ccc(C)o2)c1` (configuration not stated) [(4Z)-4-[(3-ethoxyphenyl)-hydroxymethylidene]-1-(2-methoxyethyl)-5-(5-methyl-2-furanyl)pyrrolidine-2,3-dione], 8.8 µM.
In the case of `COc1ccccc1C1C(C(=O)c2ccccc2)C(=O)C(=O)N1CC(C)C` (configuration not stated) [(4Z)-4-[hydroxy(phenyl)methylene]-1-isobutyl-5-(2-methoxyphenyl)pyrrolidine-2,3-quinone] it was 3.6 µM.
In the case of `COc1ccccc1C1C(C(=O)c2ccccc2)C(=O)C(=O)N1CC(C)O` (configuration not stated) [(4Z)-4-[hydroxy(phenyl)methylene]-1-(2-hydroxypropyl)-5-(2-methoxyphenyl)pyrrolidine-2,3-quinone] it was 16.1 µM; in that of `COc1cc(C2C(C(=O)c3cccs3)C(=O)C(=O)N2Cc2ccco2)cc(OC)c1OC` (configuration not stated) [1-(2-furanylmethyl)-4-hydroxy-3-[oxo(thiophen-2-yl)methyl]-2-(3,4,5-trimethoxyphenyl)-2H-pyrrol-5-one], 17.7 µM; in that of `CCN(CC)c1ccc(C=NC(C#N)C(=N)C#N)cc1` (configuration not stated) [SMR000023871], more than 43.7 µM.
As for `COc1ccc(OC)c(C2C(C(=O)c3ccccc3)C(=O)C(=O)N2Cc2ccco2)c1` (configuration not stated) [(4Z)-5-(2,5-dimethoxyphenyl)-1-(2-furanylmethyl)-4-[hydroxy(phenyl)methylidene]pyrrolidine-2,3-dione], the Ki worked out at 2.2 µM.
In turn, `CCOc1ccc(C2C(C(=O)c3ccco3)C(=O)C(=O)N2Cc2cccnc2)cc1` (configuration not stated) [2-(4-ethoxyphenyl)-3-(furan-2-carbonyl)-4-hydroxy-1-(pyridin-3-ylmethyl)-2H-pyrrol-5-one] showed a Ki of 10 µM. This Ki is about 4.5-fold higher than that of the compound before.
`CCOc1ccc(C(=O)C2C(=O)C(=O)N(CC3CCCO3)C2c2ccco2)cc1` (configuration not stated) [(4Z)-4-[(4-ethoxyphenyl)-hydroxymethylidene]-5-(2-furanyl)-1-(2-oxolanylmethyl)pyrrolidine-2,3-dione] displayed a Ki of 21 µM.
For `COc1ccc(CCN2C(=O)C(=O)C(C(=O)c3ccco3)C2c2cccs2)cc1OC` (configuration not stated) [1-[2-(3,4-Dimethoxy-phenyl)-ethyl]-4-(furan-2-carbonyl)-3-hydroxy-5-thiophen-2-yl-1,5-dihydro-pyrrol-2-one] the value was 12.4 µM; for `O=C1C(=O)N(CCN2CCOCC2)C(c2ccccc2)C1C(=O)c1cccs1` (configuration not stated) [1-(2-morpholin-4-ylethyl)-4-oxidanyl-2-phenyl-3-thiophen-2-ylcarbonyl-2H-pyrrol-5-one], more than 43.7 µM.
For `C=CCOc1ccc(C2C(C(=O)c3ccco3)C(=O)C(=O)N2Cc2cccnc2)cc1` (configuration not stated) [3-(furan-2-carbonyl)-4-hydroxy-2-(4-prop-2-enoxyphenyl)-1-(pyridin-3-ylmethyl)-2H-pyrrol-5-one] the value was 6.4 µM.
